For orientation: IC50 means the concentration that gives 50% inhibition. Usually Ki stands for a dissociation constant, usually derived from enzyme kinetics or from competition with a known ligand.

Among the targets are M3 (h) (Homo sapiens, UniProt P20309); 5-HT1B (Rattus norvegicus, UniProt P28564); 5-HT6 (h) (Homo sapiens, UniProt P50406); 5-HT4e (h) (Homo sapiens, UniProt Q13639).
The next experiment has as its target T1, M5 (h) (Homo sapiens, UniProt P08912).
T1 construct: host or cells: CHO cells
T1 sequence (P08912 1-532): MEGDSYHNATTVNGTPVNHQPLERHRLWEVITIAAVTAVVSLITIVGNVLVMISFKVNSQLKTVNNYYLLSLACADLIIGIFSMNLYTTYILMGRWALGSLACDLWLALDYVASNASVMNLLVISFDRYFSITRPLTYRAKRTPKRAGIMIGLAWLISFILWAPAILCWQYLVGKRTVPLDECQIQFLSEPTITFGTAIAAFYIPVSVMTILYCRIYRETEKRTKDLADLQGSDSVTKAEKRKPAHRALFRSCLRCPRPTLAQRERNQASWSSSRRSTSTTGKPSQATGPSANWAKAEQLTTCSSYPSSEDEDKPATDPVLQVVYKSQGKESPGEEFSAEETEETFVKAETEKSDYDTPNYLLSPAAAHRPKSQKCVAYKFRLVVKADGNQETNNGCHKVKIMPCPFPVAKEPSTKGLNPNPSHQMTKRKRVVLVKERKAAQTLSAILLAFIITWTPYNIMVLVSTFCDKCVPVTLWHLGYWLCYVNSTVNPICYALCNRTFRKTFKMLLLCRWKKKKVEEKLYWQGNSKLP
It counts as binding.

The next experiment deals with T2, M4 (h) (Homo sapiens, UniProt P08173).
T2 sequence (P08173 1-479): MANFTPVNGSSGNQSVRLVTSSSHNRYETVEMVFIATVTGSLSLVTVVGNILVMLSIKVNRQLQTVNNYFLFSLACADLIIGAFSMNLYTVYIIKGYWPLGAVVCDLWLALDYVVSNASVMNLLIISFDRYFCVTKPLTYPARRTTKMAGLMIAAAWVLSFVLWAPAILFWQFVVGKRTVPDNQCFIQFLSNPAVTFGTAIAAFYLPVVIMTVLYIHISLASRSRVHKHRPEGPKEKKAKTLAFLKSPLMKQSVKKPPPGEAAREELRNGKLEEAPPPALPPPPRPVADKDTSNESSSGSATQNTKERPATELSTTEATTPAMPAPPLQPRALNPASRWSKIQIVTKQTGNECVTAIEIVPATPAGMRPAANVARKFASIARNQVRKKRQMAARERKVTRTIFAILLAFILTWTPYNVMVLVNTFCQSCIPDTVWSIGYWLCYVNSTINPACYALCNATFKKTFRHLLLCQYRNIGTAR

Another experiment relates to NMRI mice. The format is in vivo, mouse. The conditions noted are these: 8 mg/kg oral. How it is done: NMRI mice were habituated to their room for at least 2 to 3 weeks after the delivery and kept under standard conditions in groups of 4–5 animals per cage. Food and water were available ad libitum.
The tail suspension test was performed using with a BIOSEB system. In preparation for the experiment, a piece of tape (approx. 15 cm long) was wrapped around the end of the mouse tail approximately 2 mm before the tip. The tape was then attached to a holding device within the measuring unit at a height of approximately 30cm.
Movements of the animals were monitored and automatically evaluated by corresponding software. The duration of immobility during 6 min observation period was recorded. At the end of the experiment plasma samples were taken and the animals were sacrificed via isofluorane inhalation and subsequent decapitation.

Another experiment concerns the target T3, GR (h) (Homo sapiens, UniProt P04150).
T3 construct: IM-9 cells; host or cells: IM-9 cells (cytosol)
It counts as binding.

Values joined by “and” are separate entries in the source; they are usually repeats but may differ in a detail not shown here. Equal entries are not always repeated.

Sequence of 5-HT6 (h) (P50406 whole entry): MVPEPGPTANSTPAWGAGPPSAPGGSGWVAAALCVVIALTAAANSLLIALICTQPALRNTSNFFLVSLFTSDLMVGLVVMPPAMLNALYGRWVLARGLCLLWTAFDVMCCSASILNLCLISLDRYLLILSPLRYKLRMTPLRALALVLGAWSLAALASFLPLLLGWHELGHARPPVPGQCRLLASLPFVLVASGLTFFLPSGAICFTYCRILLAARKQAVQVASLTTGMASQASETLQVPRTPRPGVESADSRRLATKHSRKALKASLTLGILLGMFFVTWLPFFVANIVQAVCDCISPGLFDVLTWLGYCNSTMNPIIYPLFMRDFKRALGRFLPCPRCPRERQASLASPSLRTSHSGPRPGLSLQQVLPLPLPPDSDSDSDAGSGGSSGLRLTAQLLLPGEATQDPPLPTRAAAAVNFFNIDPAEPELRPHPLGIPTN
Sequence of 5-HT1B (P28564 whole entry): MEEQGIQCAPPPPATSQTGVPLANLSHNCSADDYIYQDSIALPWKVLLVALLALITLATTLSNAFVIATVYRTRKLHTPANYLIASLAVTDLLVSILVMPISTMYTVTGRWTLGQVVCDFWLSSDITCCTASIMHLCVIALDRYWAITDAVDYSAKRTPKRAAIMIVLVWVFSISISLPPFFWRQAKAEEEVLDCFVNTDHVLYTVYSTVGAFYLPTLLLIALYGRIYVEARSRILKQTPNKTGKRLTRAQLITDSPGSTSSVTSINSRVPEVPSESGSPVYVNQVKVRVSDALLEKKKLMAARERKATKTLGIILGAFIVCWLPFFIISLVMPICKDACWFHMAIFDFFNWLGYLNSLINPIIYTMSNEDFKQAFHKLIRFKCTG
Sequence of M3 (h) (P20309 whole entry): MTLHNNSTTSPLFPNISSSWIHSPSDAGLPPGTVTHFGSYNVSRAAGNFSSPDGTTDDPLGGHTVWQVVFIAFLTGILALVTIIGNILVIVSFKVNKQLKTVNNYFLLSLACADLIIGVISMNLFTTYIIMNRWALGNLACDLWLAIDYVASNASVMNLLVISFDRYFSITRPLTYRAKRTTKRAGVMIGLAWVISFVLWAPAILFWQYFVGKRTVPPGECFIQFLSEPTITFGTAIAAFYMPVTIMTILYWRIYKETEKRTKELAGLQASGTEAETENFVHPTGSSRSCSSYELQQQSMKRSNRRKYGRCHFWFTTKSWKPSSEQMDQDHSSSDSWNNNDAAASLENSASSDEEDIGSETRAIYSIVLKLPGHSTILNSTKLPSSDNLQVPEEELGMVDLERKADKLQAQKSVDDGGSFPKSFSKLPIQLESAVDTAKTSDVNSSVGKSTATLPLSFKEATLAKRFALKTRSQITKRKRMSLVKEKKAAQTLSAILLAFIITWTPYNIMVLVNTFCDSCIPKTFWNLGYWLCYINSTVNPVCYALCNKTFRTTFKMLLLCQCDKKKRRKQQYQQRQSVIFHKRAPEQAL
Sequence of 5-HT4e (h) (Q13639 1-378 isoform Q13639-5): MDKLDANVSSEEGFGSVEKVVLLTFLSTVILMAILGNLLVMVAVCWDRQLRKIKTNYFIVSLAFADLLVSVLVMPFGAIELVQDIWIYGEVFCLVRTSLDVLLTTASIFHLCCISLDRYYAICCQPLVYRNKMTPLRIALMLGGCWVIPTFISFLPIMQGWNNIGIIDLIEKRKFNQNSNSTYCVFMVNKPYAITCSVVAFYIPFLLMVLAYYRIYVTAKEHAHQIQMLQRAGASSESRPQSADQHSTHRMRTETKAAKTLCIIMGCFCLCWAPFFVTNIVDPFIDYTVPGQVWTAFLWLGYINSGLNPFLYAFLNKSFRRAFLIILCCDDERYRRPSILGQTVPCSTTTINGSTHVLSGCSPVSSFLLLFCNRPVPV
T3 sequence (P04150 whole entry): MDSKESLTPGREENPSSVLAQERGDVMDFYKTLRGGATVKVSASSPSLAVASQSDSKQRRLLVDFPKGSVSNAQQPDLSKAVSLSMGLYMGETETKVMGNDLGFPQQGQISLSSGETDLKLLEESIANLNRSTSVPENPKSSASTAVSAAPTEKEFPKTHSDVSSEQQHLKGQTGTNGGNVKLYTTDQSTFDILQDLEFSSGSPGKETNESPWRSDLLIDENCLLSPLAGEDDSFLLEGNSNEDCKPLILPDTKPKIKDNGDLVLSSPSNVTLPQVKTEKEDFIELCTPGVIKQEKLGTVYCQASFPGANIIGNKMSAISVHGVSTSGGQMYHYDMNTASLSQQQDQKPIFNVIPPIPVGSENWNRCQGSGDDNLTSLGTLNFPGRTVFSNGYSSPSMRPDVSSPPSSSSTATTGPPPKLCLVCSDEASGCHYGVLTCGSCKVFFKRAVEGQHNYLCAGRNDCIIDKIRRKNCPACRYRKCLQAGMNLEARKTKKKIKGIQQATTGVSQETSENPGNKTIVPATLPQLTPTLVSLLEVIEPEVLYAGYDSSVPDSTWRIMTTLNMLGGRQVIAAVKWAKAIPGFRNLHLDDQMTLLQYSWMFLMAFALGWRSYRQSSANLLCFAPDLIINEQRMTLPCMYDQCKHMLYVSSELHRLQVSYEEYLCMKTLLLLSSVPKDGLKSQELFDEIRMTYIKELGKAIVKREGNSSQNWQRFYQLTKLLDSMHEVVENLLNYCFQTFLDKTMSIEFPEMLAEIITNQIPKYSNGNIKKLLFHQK

Regarding `C[N+]1(C)CCC(OC(=O)C(c2ccccc2)c2ccccc2)CC1.[I-]` [4-DAMP, reference compound], at M5 (h), the concentration for half-maximal inhibition (IC50) was 0.76 nM and 0.45 nM; the Ki was 0.38 nM and 0.22 nM; the nH was determined as 0.8. This compound also registered a nH at M4 (h) of 0.8. The nH on M3 (h) is 1.2.

Take `CNCCCN1c2ccccc2CCc2ccccc21` [desipramine, reference compound]: the time of immobility result in the experiment on NMRI mice is “reduced the time of immobility”.

Regarding `C[C@@H]1C[C@H]2[C@@H]3CCC4=CC(=O)C=C[C@]4(C)[C@@]3(F)[C@@H](O)C[C@]2(C)[C@@]1(O)C(=O)CO` [dexamethasone], the nH on GR (h) is reported as 1.1.

Consider `NCCc1c[nH]c2ccc(O)cc12` [serotonin], for which the nH on 5-HT1B is listed as 0.7; on 5-HT6 (h), 1.0; on 5-HT4e (h), 0.9.

The record behind these values is PMC5791972 (PLoS ONE, 2018).
